# Test results: publication PMC10885103, “Deciphering the Synthetic and Refolding Strategy of a Cysteine-Rich Domain in the Tumor Necrosis Factor Receptor (TNF-R) for Racemic Crystallography Analysis and D-Peptide Ligand Discovery” (ACS Bio & Med Chem Au, 2023)
# Where no end group is shown, it is not given here.
# Tests used:
# D-TNFR-1 CRD2 [1] = assay: Mirror-image phage display against D-TNFR-1 CRD2; type: binding; conditions: after three rounds of biopanning, D-TNFR-1 CRD2 3 μg on streptavidin/neutravidin beads
# Text: The receptor mimic was subjected to mirror-image molecular screening as a means of seeking ligands that inhibit TNF-α binding. […] A D-peptide inhibitor could be potentially tested as a candidate against TNFR-1-related inflammatory diseases localized in the protease-rich gastrointestinal tract.[10b],[20] Consequently, the D-TNFR-1 CRD2 serves as a receptor mimic in mirror-image phage display (MIPD), a molecular screening technique that exploits the concept of reflection symmetry for the discovery of peptide ligands in opposite chirality.[5b] To conduct the experiment, D-TNFR-1 CRD2 was biotinylated at the C-terminus, immobilized onto streptavidin-coated beads, and subjected to phage display. Subsequently, bacteriophage libraries[21] consisted of the sequence format CX9C where X could be any canonical amino acid and terminal cysteine residues used for cyclization were tested. […] This was confirmed by an additional phage display experiment, in which the WLG motif was fixed in the format CX4WLGX2C.
# The peptides were linked to the gene-3 coat protein (pIII) via a trialanine (Ala-Ala-Ala) spacer. Gel purified DNA encoding the libraries were ligated into the pCantab 5E phagemid vector, and transformed into chemically competent E. coli TG1. 20-fold excess of helper phage M13KO7 was used during rescue and amplification of the bacteriophages. […]
# D-TNFR-1 CRD2 [2] = assay: GCI (RAPID, repeated analyte pulses of increasing duration) of TCPB-E isomers on D-TNFR-1 CRD2; type: binding; conditions: fixed concentration of each conformer, D-TNFR-1 CRD2, blank subtracted
# Procedure: (§1) Grating-coupled interferometry (GCI) experiments were performed on a Creoptix WAVEsystem using 4PCH-STA WAVE sensor chips (polycarboxylate surface, streptavidin coated) or 4PCH WAVE sensor chips (polycarboxylate surface) as indicated. Chips were first conditioned with borate buffer (0.1 M sodium borate, pH 9, 1 M Sodium chloride).
# S4. Identification of active binding peptide conformer
# Figure S4.1: Six possible conformers of TCPB, oxidized with either glutathione (TCPB-E-G) or cysteine […]
# TCPB solution phase oxidation […]
# form. In a 10 mL round bottomed flask, the peptide (50 μM) was dissolved in 5 mL of buffer (0.1 M phosphate, pH 6) containing 0.5 mM of either cystine or glutathione. The reaction mixtures were stirred for six hours at room temperature. Reaction completion was confirmed by LCMS, by taking 10 μL of reaction mixture and diluting with 90 μL of distilled water. The two disulfide bonded products for each cysteine and glutathione mixture were isolated by semi-preparative HPLC.
# (§2) (1 picture or pasted object on this page, not shown here)
# Figure S4.6: LCMS disulfide bond mapping of isolated TCPB-E peak i, oxidized with glutathione disulfide.
# Lyophilized peptide was digested with chymotypsin (0.1 mg/mL) in phosphate buffer ( 0.1 M, pH 6) at room temperature for 12 hours. […]
# D-TNFR-1 CRD2 [3] = assay: GCI single-cycle binding of TCPB-E-C1 and -C4 isomers to D-TNFR-1 CRD2; conditions: single cycle of association and dissociation, 50 μM of each peptide conformer, blank subtracted
# Procedure: as §1
# Figure S4.10: Grating-coupled interferometry (GCI) analysis of TCPB-E-C1 and -C4 isomers binding to
# D-TNFR-1 CRD2. A single cycle of association and dissociation were passed over the sensor surface, with
# μM of each peptide conformer. Sensograms shown are blank subtracted (target flow cell - flow cell with 50
# TCPB-E-C4. The TCPB-E-C1 conformer was thus identified as the active form of the TCPB peptide.
# as §2
sequence,measurement,setting,value
CFHCVWLGMEC,"phage display selection outcome, experiment 1",D-TNFR-1 CRD2 [1]; CX9C library,enriched
CFHCIWLGDEC,"phage display selection outcome, experiment 2",D-TNFR-1 CRD2 [1]; CX4WLGX2C library,most abundant peptide sequence
"CFHCIWLGDEC (disulfide (positions not given here)) [TCPB, intramolecular disulfide bond between residues 4–11, cysteinylated at position 1]",sensor response with respect to concentration among TCPB-E isomers,D-TNFR-1 CRD2 [2],highest sensor response
same,sensor response/binding of TCPB-E isomers to D-TNFR-1 CRD2,D-TNFR-1 CRD2 [3],highest sensor response
